Source: patent publication US20190309017A1, “GLUTAMINASE INHIBITORS” (Glutaminax, LLC, priority 2018, published 2019)
Where “and” joins values, the source holds several entries; their conditions need not be identical. Equal entries are not always repeated. Residues, ends and D or L forms follow the SMILES beside them. *: point of attachment. NHOH = ON*

Legend:
[1] = system: IM-9 cells (Multiple Myeloma); assay: Cell kill of IM-9 cells, CyQuant NF assay (DNA content); format: cell-based
Experimental: Compounds 6 and 9 were tested for their ability to kill IM-9 cells (Multiple Myeloma). Approximately 25,000 cells were plated in RPMI medium (4 mM glutamine). Compounds 6 and 9 were dissolved in PBS and pH adjusted to neutrality (200 mM stock). Compound 9 was added at 1 mM, 2 mM and 4 mM concentrations into separate wells. Compound 6 was added at 0.25 mM and 1 mM concentrations into separate wells. The cells were incubated for 48 and 96 hours in the presence of […], and 48 and 72 hours in the presence of compound 6. Cell number was determined with the CyQuant NF assay (measures DNA content) according to manufacturer's instruction (Invitrogen). For the sake of clarity, compounds 6 and 9 are reproduced below: […]

[2] = system: Panc1 cells (Pancreatic cancer); assay: Cell kill of Panc1 cells, CyQuant NF assay (DNA content); format: cell-based
Experimental: Compounds 6 and 9 were tested with Panc1 cells (Pancreatic cancer) plated in DMEM medium (2 mM glutamine). Approximately 30,000 live cells were plated. Compounds were dissolved in PBS and pH adjusted to neutrality (200 mM stock). Compound 9 was added at 1 mM, 2 mM and 4 mM concentrations into separate wells. Compound 6 was added at 0.25 mM and 1 mM concentrations into separate wells. The cells were incubated for 48 and 96 hours in the presence of compound 9, and 48 and 72 hours in the presence of compound 6. Cell number was determined with the CyQuant NF assay (measures DNA content) according to manufacturer's instruction (Invitrogen).

[3] = 1 mM compound, Day 2, DMEM medium (2 mM glutamine)

Row | Structure (SMILES) | Cells killed v. control ([1]; 1 mM compound, Day 4, RPMI medium (4 mM glutamine)) | Cells killed v. control ([1]; 2 mM compound, Day 2, RPMI medium (4 mM glutamine)) | Cells killed v. control ([1]; 2 mM compound, Day 4, RPMI medium (4 mM glutamine)) | Cells killed v. control ([1]; 4 mM compound, Day 2, RPMI medium (4 mM glutamine)) | Cells killed v. control ([1]; 4 mM compound, Day 4, RPMI medium (4 mM glutamine)) | Cells killed v. control [2, 3] | Cells killed v. control ([2]; 2 mM compound, Day 2, DMEM medium (2 mM glutamine)) | Cells killed v. control ([2]; 2 mM compound, Day 4, DMEM medium (2 mM glutamine)) | Cells killed v. control ([2]; 4 mM compound, Day 2, DMEM medium (2 mM glutamine)) | Cells killed v. control ([2]; 4 mM compound, Day 4, DMEM medium (2 mM glutamine)) | Cells killed v. control ([1]; 0.25 mM compound, Day 3, RPMI medium (4 mM glutamine)) | Cells killed v. control ([1]; 1 mM compound, Day 2, RPMI medium (4 mM glutamine)) | Cells killed v. control ([1]; 1 mM compound, Day 3, RPMI medium (4 mM glutamine)) | Cells killed v. control ([2]; 0.25 mM compound, Day 2, DMEM medium (2 mM glutamine)) | Cells killed v. control ([2]; 0.25 mM compound, Day 3, DMEM medium (2 mM glutamine)) | Cells killed v. control ([2]; 1 mM compound, Day 3, DMEM medium (2 mM glutamine))
1 | NC(=O)CCC(NC(=O)C(N)CCC(=O)O)C(=O)NO (stereo not drawn) [Compound 9, α-Glu-Gln (NHOH mimetic)] (H-Glu-Gln-{NHOH}; configuration not given here) | ~58% and 58% | ~29% | ~66% | ~61% | ~96% | ~0% | ~7% | ~9% | ~11% | ~55% |  |  |  |  |  | 
2 | NC(=O)CC[C@H](NC(=O)CC[C@H](N)C(=O)O)C(=O)NO [Compound 6, β-Glu-Gln (NHOH mimetic)] |  |  |  |  |  | ~66% |  |  |  |  | ~87% | ~83% | ~91% | ~32% | ~50% | ~75%
